Measured values as given in US6355799B1, “Substituted benzene compounds, process for their preparation, and herbicidal and defoliant compositions containing them” (ISK Americas Incorporated, priority 1997, dated 2002).

Tests used:
Assay type in all cases: in vivo
[1] = tested on: redroot pigweed (Amaranthus retroflexus, AMARE); experiment: Post-emerge test, greenhouse herbicide activity screening; conditions: post-emerge, 14 days after application
How it was run: (§1)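 Visual ratings on a 0-100 scale (0 no damage, 100 all plants dead) were taken at 14 days after treatment. Rates of 15-1000 g ai/ha in acetone, 187 l/ha, were sprayed onto soil one day after planting (pre-emerge) or onto 2-3 leaf plants with 0.25% v/v surfactant (post-emerge).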

[2] = tested on: green foxtail (Setaria viridis, SETVI); experiment: as above; conditions: post-emerge, 14 days after application, rating scale 0-100
How it was run: as §1

[3] = tested on: ivyleaf morningglory (Ipomoea hederacea, IPOHE); experiment: as above; conditions: post-emerge, 14 days after application, rating scale 0-100
How it was run: as §1

[4] = tested on: barnyardgrass (Echinochloa crus-galli, ECHCG); experiment: as above; conditions: post-emerge, 14 days after application, rating scale 0-100
How it was run: as §1

[5] = tested on: large crabgrass (Digitaria sanguinalis, DIGSA); experiment: as above; conditions: post-emerge, 14 days after application, rating scale 0-100
How it was run: as §1

[6] = tested on: velvetleaf (Abutilon theophrasti, ABUTH); experiment: as above; conditions: post-emerge, 14 days after application, rating scale 0-100
How it was run: as §1

[7] = tested on: johnsongrass (Sorghum halepense, SORHA); experiment: as above; conditions: post-emerge, 14 days after application, rating scale 0-100
How it was run: as §1

[8] = tested on: lambsquarters (Chenopodium album, CHEAL); experiment: as above; conditions: post-emerge, 14 days after application, rating scale 0-100
How it was run: as §1

[9] = tested on: sicklepod (Cassia obtusifolia, CASOB); experiment: as above; conditions: post-emerge, 14 days after application, rating scale 0-100
How it was run: as §1

[10] = tested on: green foxtail (Setaria viridis, SETVI); experiment: Pre-emerge test, greenhouse herbicide activity screening; conditions: phytotoxicity rating 0-100, 14 days after application
How it was run: (§2)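 Sandy loam pots; pre-emerge: sown 1 d pre-spray, surface-watered after, then bottom-watered. Post-emerge: sown 8–21 d before, 2–3 leaf stage, + 0.25% v/v NIS, bottom-watered. Acetone, 187 l/ha track spray, 15–1000 g ai/ha. 0–100 injury score, day 14.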

[11] = tested on: ivyleaf morningglory (Ipomoea hederacea, IPOHE); experiment: as above; conditions: phytotoxicity rating 0-100, 14 days after application
How it was run: as §2

[12] = tested on: barnyardgrass (Echinochloa crus-galli, ECHCG); experiment: as above; conditions: phytotoxicity rating 0-100, 14 days after application
How it was run: as §2

[13] = tested on: large crabgrass (Digitaria sanguinalis, DIGSA); experiment: as above; conditions: phytotoxicity rating 0-100, 14 days after application
How it was run: as §2

[14] = tested on: velvetleaf (Abutilon theophrasti, ABUTH); experiment: as above; conditions: phytotoxicity rating 0-100, 14 days after application
How it was run: as §2

[15] = tested on: johnsongrass (Sorghum halepense, SORHA); experiment: as above; conditions: phytotoxicity rating 0-100, 14 days after application
How it was run: as §2

[16] = tested on: lambsquarters (Chenopodium album, CHEAL); experiment: as above; conditions: phytotoxicity rating 0-100, 14 days after application
How it was run: as §2

[17] = tested on: sicklepod (Cassia obtusifolia, CASOB); experiment: as above; conditions: phytotoxicity rating 0-100, 14 days after application
How it was run: as §2

[18] = tested on: upland rice (Oryza sp., var. Tebonnet, RICE); experiment: Pre-emerge test, crop safety; conditions: crop damage rating 0-100, 14 days after application
How it was run: (§3)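 Compounds in acetone were track-sprayed at 15-1000 g ai/ha (187 l/ha) on sandy loam pots: pre-emerge one day after seeding, post-emerge at 2-3 leaf stage with 0.25% v/v non-ionic surfactant. Phytotoxicity was rated 14 days later on a 0 (no damage) to 100 (complete death) scale.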

[19] = tested on: field corn (Zea mays L., var. Dekalb 535, CORN); experiment: Pre-emerge test, crop safety; conditions: crop damage rating 0-100, 14 days after application
How it was run: as §3

[20] = tested on: redroot pigweed (Amaranthus retroflexus, AMARE); experiment: Pre-emerge test, greenhouse herbicide activity screening; conditions: phytotoxicity rating 0-100, 14 days after application
How it was run: as §2

[21] = tested on: upland rice (Oryza sp., var. Tebonnet, RICE); experiment: Post-emerge test, crop safety; conditions: post-emerge, 14 days after application, rating scale 0-100
How it was run: as §2

[22] = tested on: field corn (Zea mays L., var. Dekalb 535, CORN); experiment: Post-emerge test, crop safety; conditions: post-emerge, 14 days after application, rating scale 0-100
How it was run: as §2

[23] = 250 g ai/ha, rating scale 0-100

Nn1c(C(F)(F)F)cc(=O)n(-c2c(F)cc(Cl)c(O)c2NC(=O)c2ccc3ccccc3c2)c1=O [Compound 2-192]
phytotoxicity rating AMARE ([1]; 63 g ai/ha, rating scale 0-100 (0 no damage, 100 complete death)): 70 | phytotoxicity rating AMARE [1, 23]: 70 | phytotoxicity rating SETVI ([2]; 63 g ai/ha): 0 | phytotoxicity rating SETVI ([2]; 250 g ai/ha): 0 | phytotoxicity rating IPOHE ([3]; 63 g ai/ha): 50 | phytotoxicity rating IPOHE ([3]; 250 g ai/ha): 70 | phytotoxicity rating ECHCG ([4]; 63 g ai/ha): 0 | phytotoxicity rating ECHCG ([4]; 250 g ai/ha): 0 | phytotoxicity rating DIGSA ([5]; 63 g ai/ha): 0 | phytotoxicity rating DIGSA ([5]; 250 g ai/ha): 0 | phytotoxicity rating ABUTH ([6]; 63 g ai/ha): 85 | phytotoxicity rating ABUTH ([6]; 250 g ai/ha): 85 | phytotoxicity rating SORHA ([7]; 63 g ai/ha): 0 | phytotoxicity rating SORHA ([7]; 250 g ai/ha): 0 | phytotoxicity rating CHEAL ([8]; 63 g ai/ha): 60 | phytotoxicity rating CHEAL ([8]; 250 g ai/ha): 50 | phytotoxicity rating CASOB ([9]; 63 g ai/ha): 40 | phytotoxicity rating CASOB ([9]; 250 g ai/ha): 60 | Pre-emerge Herbicidal Activity SETVI ([10]; 250 g ai/ha): 0 | Pre-emerge Herbicidal Activity IPOHE ([11]; 250 g ai/ha): 30 | Pre-emerge Herbicidal Activity ECHCG ([12]; 250 g ai/ha): 0 | Pre-emerge Herbicidal Activity DIGSA ([13]; 250 g ai/ha): 0 | Pre-emerge Herbicidal Activity ABUTH ([14]; 250 g ai/ha): 85 | Pre-emerge Herbicidal Activity SORHA ([15]; 250 g ai/ha): 0 | Pre-emerge Herbicidal Activity CHEAL ([16]; 250 g ai/ha): 80 | Pre-emerge Herbicidal Activity CASOB ([17]; 250 g ai/ha): 0 | Pre-emerge Herbicidal Activity RICE ([18]; 250 g ai/ha): 0 | Pre-emerge Herbicidal Activity CORN ([19]; 250 g ai/ha): 0 | Pre-emerge Herbicidal Activity AMARE ([20]; 250 g ai/ha): 90 | phytotoxicity rating RICE (crop damage) ([21]; 63 g ai/ha): 0 | phytotoxicity rating RICE (crop damage) ([21]; 250 g ai/ha): 20 | phytotoxicity rating CORN (crop damage) ([22]; 63 g ai/ha): 5 | phytotoxicity rating CORN (crop damage) ([22]; 250 g ai/ha): 15

CCOC(=O)COc1c(Cl)cc(F)c(-n2c(=O)cc(C(F)(F)F)n(C)c2=O)c1NC(=O)C=Cc1ccccc1 [2-190]
AMARE phytotoxicity rating ([1]; 63 g ai/ha, rating scale 0-100): 95 | phytotoxicity rating AMARE [1, 23]: 99 | SETVI phytotoxicity rating ([2]; 63 g ai/ha): 0 | phytotoxicity rating SETVI ([2]; 250 g ai/ha): 0 | IPOHE phytotoxicity rating ([3]; 63 g ai/ha): 50 | phytotoxicity rating IPOHE ([3]; 250 g ai/ha): 90 | ECHCG phytotoxicity rating ([4]; 63 g ai/ha): 0 | phytotoxicity rating ECHCG ([4]; 250 g ai/ha): 10 | DIGSA phytotoxicity rating ([5]; 63 g ai/ha): 0 | phytotoxicity rating DIGSA ([5]; 250 g ai/ha): 0 | ABUTH phytotoxicity rating ([6]; 63 g ai/ha): 90 | phytotoxicity rating ABUTH ([6]; 250 g ai/ha): 90 | SORHA phytotoxicity rating ([7]; 63 g ai/ha): 0 | phytotoxicity rating SORHA ([7]; 250 g ai/ha): 50 | CHEAL phytotoxicity rating ([8]; 63 g ai/ha): 90 | phytotoxicity rating CHEAL ([8]; 250 g ai/ha): 100 | CASOB phytotoxicity rating ([9]; 63 g ai/ha): 20 | phytotoxicity rating CASOB ([9]; 250 g ai/ha): 80 | Pre-emerge Herbicidal Activity SETVI ([10]; 63 g ai/ha): 0 | Pre-emerge Herbicidal Activity SETVI ([10]; 250 g ai/ha): 30 | Pre-emerge Herbicidal Activity IPOHE ([11]; 63 g ai/ha): 0 | Pre-emerge Herbicidal Activity IPOHE ([11]; 250 g ai/ha): 90 | Pre-emerge Herbicidal Activity ECHCG ([12]; 63 g ai/ha): 0 | Pre-emerge Herbicidal Activity ECHCG ([12]; 250 g ai/ha): 0 | Pre-emerge Herbicidal Activity DIGSA ([13]; 63 g ai/ha): 0 | Pre-emerge Herbicidal Activity DIGSA ([13]; 250 g ai/ha): 30 | Pre-emerge Herbicidal Activity ABUTH ([14]; 63 g ai/ha): 100 | Pre-emerge Herbicidal Activity ABUTH ([14]; 250 g ai/ha): 100 | Pre-emerge Herbicidal Activity SORHA ([15]; 63 g ai/ha): 0 | Pre-emerge Herbicidal Activity SORHA ([15]; 250 g ai/ha): 0 | Pre-emerge Herbicidal Activity CHEAL ([16]; 63 g ai/ha): 100 | Pre-emerge Herbicidal Activity CHEAL ([16]; 250 g ai/ha): 100 | Pre-emerge Herbicidal Activity CASOB ([17]; 63 g ai/ha): 30 | Pre-emerge Herbicidal Activity CASOB ([17]; 250 g ai/ha): 70 | Pre-emerge Herbicidal Activity RICE ([18]; 63 g ai/ha): 10 | Pre-emerge Herbicidal Activity RICE ([18]; 250 g ai/ha): 20 | Pre-emerge Herbicidal Activity CORN ([19]; 63 g ai/ha): 0 | Pre-emerge Herbicidal Activity CORN ([19]; 250 g ai/ha): 0 | Pre-emerge Herbicidal Activity AMARE ([20]; 63 g ai/ha): 95 | Pre-emerge Herbicidal Activity AMARE ([20]; 250 g ai/ha): 100 | RICE phytotoxicity rating (crop damage) ([21]; 63 g ai/ha): 0 | phytotoxicity rating RICE (crop damage) ([21]; 250 g ai/ha): 5 | CORN phytotoxicity rating (crop damage) ([22]; 63 g ai/ha): 5 | phytotoxicity rating CORN (crop damage) ([22]; 250 g ai/ha): 10
